Legend:
[1] = target: Carbonic anhydrase 13 (Mus musculus) (UniProt Q9D6N1); test: Inhibition of mouse recombinant full length carbonic hydrase 13 by stopped-flow assay
[2] = target: Carbonic anhydrase 1 (Homo sapiens) (UniProt P00915)
Description: Inhibition of human recombinant full length carbonic hydrase 1 by stopped-flow assay

[3] = target: Carbonic anhydrase 2 (Homo sapiens) (UniProt P00918)
Description: Inhibition of human recombinant full length carbonic hydrase 2 by stopped-flow assay

[4] = target: Carbonic anhydrase 3 (Homo sapiens) (UniProt P07451)
Description: Inhibition of human recombinant full length carbonic hydrase 3 by stopped-flow assay

[5] = target: Carbonic anhydrase 4 (Homo sapiens) (UniProt P22748)
Description: Inhibition of human recombinant full length carbonic hydrase 4 by stopped-flow assay

[6] = target: Carbonic anhydrase 5A, mitochondrial (Homo sapiens) (UniProt P35218)
Chain of Carbonic anhydrase 5A, mitochondrial (Homo sapiens) (P35218 whole entry): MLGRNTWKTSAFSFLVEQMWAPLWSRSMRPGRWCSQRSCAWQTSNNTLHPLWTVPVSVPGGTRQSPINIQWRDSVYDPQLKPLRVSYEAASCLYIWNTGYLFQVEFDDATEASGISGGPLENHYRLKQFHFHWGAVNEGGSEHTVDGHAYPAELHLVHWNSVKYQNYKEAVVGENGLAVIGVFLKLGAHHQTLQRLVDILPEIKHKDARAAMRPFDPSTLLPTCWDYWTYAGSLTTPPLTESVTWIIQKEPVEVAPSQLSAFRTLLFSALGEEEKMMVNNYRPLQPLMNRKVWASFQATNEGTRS
Description: Inhibition of human recombinant full length carbonic hydrase 5A by stopped-flow assay

[7] = target: Carbonic anhydrase 6 (Homo sapiens) (UniProt P23280)
Chain of Carbonic anhydrase 6 (Homo sapiens) (P23280 whole entry): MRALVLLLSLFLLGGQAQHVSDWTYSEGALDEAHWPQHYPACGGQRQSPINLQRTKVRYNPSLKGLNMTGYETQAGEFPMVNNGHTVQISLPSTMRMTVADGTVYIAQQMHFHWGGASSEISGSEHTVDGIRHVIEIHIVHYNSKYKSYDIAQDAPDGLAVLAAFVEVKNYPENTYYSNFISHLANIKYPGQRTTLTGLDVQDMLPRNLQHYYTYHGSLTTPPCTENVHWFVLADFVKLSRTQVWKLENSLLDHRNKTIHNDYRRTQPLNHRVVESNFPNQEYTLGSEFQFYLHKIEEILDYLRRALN
Description: Inhibition of human recombinant full length carbonic hydrase 6 by stopped-flow assay

[8] = target: Carbonic anhydrase 7 (Homo sapiens) (UniProt P43166)
Chain of Carbonic anhydrase 7 (Homo sapiens) (P43166 whole entry): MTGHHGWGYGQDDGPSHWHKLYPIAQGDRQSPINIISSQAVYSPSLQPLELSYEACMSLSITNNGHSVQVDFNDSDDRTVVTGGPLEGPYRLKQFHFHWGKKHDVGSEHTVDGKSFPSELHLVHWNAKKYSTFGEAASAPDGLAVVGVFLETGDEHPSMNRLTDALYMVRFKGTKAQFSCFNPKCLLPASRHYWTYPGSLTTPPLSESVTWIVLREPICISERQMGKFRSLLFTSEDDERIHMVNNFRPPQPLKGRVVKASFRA
Description: Inhibition of human recombinant full length carbonic hydrase 7 by stopped-flow assay

[9] = target: Carbonic anhydrase 9 (Homo sapiens) (UniProt Q16790)
Description: Inhibition of human catalytic domain carbonic hydrase 9 by stopped-flow assay

[10] = target: Carbonic anhydrase 12 (Homo sapiens) (UniProt O43570)
Chain of Carbonic anhydrase 12 (Homo sapiens) (O43570 whole entry): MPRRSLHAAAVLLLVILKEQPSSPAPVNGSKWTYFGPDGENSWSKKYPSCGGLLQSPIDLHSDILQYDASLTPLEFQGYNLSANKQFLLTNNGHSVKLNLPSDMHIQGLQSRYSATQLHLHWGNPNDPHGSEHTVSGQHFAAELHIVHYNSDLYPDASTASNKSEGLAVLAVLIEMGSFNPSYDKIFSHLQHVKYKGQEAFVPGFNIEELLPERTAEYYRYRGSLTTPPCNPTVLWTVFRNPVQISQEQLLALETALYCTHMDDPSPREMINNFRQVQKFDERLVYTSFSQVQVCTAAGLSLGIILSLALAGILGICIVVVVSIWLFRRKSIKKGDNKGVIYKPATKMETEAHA
Description: Inhibition of human catalytic domain carbonic hydrase 12 by stopped-flow assay

[11] = target: Carbonic anhydrase 14 (Homo sapiens) (UniProt Q9ULX7)
Chain of Carbonic anhydrase 14 (Homo sapiens) (Q9ULX7 whole entry): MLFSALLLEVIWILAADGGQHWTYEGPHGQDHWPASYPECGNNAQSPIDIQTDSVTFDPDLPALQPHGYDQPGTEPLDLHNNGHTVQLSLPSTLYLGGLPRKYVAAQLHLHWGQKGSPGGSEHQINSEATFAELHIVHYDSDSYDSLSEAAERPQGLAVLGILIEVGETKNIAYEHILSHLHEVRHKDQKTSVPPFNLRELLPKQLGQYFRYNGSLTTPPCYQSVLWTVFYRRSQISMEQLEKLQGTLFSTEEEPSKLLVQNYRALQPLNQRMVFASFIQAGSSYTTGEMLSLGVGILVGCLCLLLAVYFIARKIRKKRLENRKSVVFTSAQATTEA
Description: Inhibition of human recombinant full length carbonic hydrase 14 by stopped-flow assay

[12] = target: Carbonic anhydrase 5B, mitochondrial (Homo sapiens) (UniProt Q9Y2D0)
Chain of Carbonic anhydrase 5B, mitochondrial (Homo sapiens) (Q9Y2D0 whole entry): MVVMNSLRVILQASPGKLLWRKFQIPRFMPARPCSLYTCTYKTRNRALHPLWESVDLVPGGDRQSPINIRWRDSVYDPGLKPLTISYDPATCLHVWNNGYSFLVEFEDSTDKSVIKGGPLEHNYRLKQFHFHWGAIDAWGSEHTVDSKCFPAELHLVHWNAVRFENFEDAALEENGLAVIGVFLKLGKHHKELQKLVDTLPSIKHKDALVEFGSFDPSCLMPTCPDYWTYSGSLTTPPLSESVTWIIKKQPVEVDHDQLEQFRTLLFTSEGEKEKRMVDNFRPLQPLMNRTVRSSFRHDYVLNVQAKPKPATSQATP
Description: Inhibition of human recombinant full length carbonic hydrase 5B by stopped-flow assay

Chain of Carbonic anhydrase 13 (Mus musculus) (Q9D6N1 whole entry, looked up): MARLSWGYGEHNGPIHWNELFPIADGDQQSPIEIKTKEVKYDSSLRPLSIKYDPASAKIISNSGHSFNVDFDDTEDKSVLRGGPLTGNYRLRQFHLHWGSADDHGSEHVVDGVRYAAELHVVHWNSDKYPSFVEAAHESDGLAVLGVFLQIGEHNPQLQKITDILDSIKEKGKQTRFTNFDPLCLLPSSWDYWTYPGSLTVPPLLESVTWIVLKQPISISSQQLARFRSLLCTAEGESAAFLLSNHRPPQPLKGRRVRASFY
Chain of Carbonic anhydrase 3 (Homo sapiens) (P07451 whole entry): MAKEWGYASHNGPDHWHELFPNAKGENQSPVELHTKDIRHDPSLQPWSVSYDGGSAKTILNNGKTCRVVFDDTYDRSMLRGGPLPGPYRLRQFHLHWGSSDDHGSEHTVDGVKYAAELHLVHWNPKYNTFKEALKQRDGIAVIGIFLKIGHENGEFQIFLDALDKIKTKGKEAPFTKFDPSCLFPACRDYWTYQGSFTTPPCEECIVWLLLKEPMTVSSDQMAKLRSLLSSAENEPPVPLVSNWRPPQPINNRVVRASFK
Chain of Carbonic anhydrase 1 (Homo sapiens) (P00915 2-261 limits assumed): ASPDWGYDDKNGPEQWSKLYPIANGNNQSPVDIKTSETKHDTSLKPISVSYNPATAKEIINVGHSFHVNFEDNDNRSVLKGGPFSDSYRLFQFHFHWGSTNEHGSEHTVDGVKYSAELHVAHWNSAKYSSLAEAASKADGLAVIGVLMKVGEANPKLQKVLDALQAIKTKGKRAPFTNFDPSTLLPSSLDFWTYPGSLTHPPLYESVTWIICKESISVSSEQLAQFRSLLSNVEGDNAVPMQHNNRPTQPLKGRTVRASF
Chain of Carbonic anhydrase 4 (Homo sapiens) (P22748 whole entry): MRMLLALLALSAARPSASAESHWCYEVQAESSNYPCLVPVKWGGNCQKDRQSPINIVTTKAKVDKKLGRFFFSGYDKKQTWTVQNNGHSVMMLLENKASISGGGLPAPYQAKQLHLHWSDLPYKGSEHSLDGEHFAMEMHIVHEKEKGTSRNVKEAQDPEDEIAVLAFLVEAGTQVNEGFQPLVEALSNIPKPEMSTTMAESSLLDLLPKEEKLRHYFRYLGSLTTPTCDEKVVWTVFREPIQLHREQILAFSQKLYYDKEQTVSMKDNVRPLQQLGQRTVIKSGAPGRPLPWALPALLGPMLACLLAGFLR

| SMILES | Kinact [1] [µM] | Ki [2] [µM] | Ki [3] [µM] | Ki [4] [µM] | Ki [5] [µM] | Ki [6] [µM] | Ki [7] [µM] | Kinact [8] [µM] | Kinact [9] [µM] | Kinact [10] [µM] | Kinact [11] [µM] | Ki [12] [µM] |
| --- | --- | --- | --- | --- | --- | --- | --- | --- | --- | --- | --- | --- |
| Oc1c(I)cc(Cl)c2cccnc12 | 4.9 | 6.6 | 6.5 | 3.3 | 5.4 | 8.3 | 5.3 | 16 | 5.6 | 8.1 | 5 |  |
| CC(=O)/N=c1/sc(S(N)(=O)=O)nn1C | 0.019 |  |  | 710 |  | 0.065 | 0.01 |  |  |  |  |  |
| Oc1cc(F)cc(F)c1 | 84.2 | 38.8 | 33.9 | 0.71 | 10.7 | 65 | 82.6 | 163 | 9.4 | 70.2 | 10.6 | 98.4 |
